One test deals with muscle cells. It counts as cell-based. To be noted: for Contraction of muscle cells after the washing step (reversibility): incubation for 24 hours followed by a washing step. The procedure:
The efficacy of peptides V0083091A (KKYK; SEQ ID NO: 1) and V0083092A (KWKK; […]. Muscle cells were incubated or treated without (control) or with compounds, for example, peptides V0083091A and V0083092A, and contraction of the muscle cells was evaluated after incubation for 5 hours, after incubation for 24 hours, or after incubation for 24 hours followed by a washing step.

Test [1] deals with Human epidermal keratinocytes (HEKs). The experiment in a line: MTT assay on human epidermal keratinocytes in in vitro cultures. The note with it: 24 hours after treatment.
The target of test [2] is human muscular nicotinic acetylcholine receptor (HmnAChR) (Homo sapiens, UniProt P02708+Q04844). The test can be described thus: Binding energy of peptides in the HmnAChR binding site over runs of genetic algorithm. To be noted: Table 3, difference of binding energies (no unit printed in Table 3).
In test [3] the target is human muscular nicotinic acetylcholine receptor (HmnAChR) (human).
human muscular nicotinic acetylcholine receptor (HmnAChR) (human), sequence (P02708 21-457, chain 1 of 4): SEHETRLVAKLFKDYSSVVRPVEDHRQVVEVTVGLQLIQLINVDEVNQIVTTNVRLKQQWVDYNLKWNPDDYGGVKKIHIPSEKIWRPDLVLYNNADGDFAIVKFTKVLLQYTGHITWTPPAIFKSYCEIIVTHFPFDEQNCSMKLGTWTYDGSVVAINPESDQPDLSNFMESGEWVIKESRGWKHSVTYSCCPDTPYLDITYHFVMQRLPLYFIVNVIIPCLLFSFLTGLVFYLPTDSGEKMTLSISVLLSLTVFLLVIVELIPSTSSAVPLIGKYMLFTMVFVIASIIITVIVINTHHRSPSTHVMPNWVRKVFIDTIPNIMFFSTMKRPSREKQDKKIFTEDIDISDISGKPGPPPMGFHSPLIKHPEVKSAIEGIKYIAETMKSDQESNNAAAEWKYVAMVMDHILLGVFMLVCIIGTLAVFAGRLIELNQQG
human muscular nicotinic acetylcholine receptor (HmnAChR) (human), sequence (P11230 24-501, chain 2 of 4, further chain): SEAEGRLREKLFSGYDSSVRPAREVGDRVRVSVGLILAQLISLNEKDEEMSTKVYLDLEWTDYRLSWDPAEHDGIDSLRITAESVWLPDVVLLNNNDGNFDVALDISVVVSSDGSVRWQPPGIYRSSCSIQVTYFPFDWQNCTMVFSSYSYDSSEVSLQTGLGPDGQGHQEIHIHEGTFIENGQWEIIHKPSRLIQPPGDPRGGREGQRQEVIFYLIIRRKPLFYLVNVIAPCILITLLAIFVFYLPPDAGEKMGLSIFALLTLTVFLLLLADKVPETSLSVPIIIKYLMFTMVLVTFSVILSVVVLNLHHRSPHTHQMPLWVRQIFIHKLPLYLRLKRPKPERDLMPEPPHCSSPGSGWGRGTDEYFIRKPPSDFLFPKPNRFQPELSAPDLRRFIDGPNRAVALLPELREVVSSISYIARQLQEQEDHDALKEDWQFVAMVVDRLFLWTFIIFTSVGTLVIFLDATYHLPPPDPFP
human muscular nicotinic acetylcholine receptor (HmnAChR) (human), sequence (Q07001 22-517, chain 3 of 4, further chain): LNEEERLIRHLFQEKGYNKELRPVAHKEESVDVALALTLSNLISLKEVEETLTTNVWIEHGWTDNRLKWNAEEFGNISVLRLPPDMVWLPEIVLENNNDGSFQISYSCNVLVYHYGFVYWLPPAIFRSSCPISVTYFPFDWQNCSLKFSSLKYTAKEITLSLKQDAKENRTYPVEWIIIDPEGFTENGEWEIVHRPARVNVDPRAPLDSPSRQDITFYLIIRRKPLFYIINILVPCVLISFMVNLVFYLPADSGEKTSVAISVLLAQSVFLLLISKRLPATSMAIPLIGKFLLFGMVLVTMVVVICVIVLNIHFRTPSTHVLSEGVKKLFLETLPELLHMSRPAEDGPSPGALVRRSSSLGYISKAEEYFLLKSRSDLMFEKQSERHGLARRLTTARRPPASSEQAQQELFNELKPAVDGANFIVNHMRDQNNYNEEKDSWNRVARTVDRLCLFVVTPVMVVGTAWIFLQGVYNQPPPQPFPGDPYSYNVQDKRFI
human muscular nicotinic acetylcholine receptor (HmnAChR) (human), sequence (Q04844 21-493, chain 4 of 4, further chain): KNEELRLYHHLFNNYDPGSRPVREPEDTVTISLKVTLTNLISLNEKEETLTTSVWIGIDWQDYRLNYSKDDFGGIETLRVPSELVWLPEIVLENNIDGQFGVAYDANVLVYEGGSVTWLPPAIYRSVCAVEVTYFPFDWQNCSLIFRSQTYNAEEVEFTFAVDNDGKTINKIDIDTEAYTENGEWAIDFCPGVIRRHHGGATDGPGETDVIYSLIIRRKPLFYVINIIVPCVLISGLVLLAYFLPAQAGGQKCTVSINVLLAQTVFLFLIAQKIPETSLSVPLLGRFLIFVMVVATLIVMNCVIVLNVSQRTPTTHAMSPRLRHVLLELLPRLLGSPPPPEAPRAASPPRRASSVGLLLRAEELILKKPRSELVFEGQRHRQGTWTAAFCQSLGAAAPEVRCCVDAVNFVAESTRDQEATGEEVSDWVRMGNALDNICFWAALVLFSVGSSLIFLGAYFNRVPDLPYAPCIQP

human muscular nicotinic acetylcholine receptor (HmnAChR), sequence (P02708 21-457): as the sequence (P02708 21-457, chain 1 of 4) above
human muscular nicotinic acetylcholine receptor (HmnAChR), sequence (Q04844 21-493): as the sequence (Q04844 21-493, chain 4 of 4, further chain) above
human muscular nicotinic acetylcholine receptor (HmnAChR), sequence (P11230 24-501 partner): as the sequence (P11230 24-501, chain 2 of 4, further chain) above
human muscular nicotinic acetylcholine receptor (HmnAChR), sequence (Q07001 22-517 partner): as the sequence (Q07001 22-517, chain 3 of 4, further chain) above

Regarding `C/C=C/C=C\CC/C=C/C(=O)NCC(C)C` [spilanthol], in the test on muscle cells (1 μM or 10 μM, 5 or 24 hours after incubation, p value<5%), the “Inhibition of contraction of muscle cells, effect size” value was 1.5-2. Also, the “Contraction of muscle cells after the washing step (reversibility)” value with muscle cells is “inhibitory effect was lost”.

For the compound Lys-Lys-Tyr-Lys [Peptide V0083091A], the “Inhibition effect on muscle cell contraction” value in the test on muscle cells (1 μM, observable after incubation for 24 hours) is on record as “much less inhibition effect”. In the test with muscle cells, the “Contraction of muscle cells after the washing step (reversibility)” value was “no clear recovery of the contraction power”. Besides, the “Proliferation of the HEKs” value in test [1] was “induced proliferation”.

With “dipeptide diaminobutyroyl benzylamide diacetate [SYN ®-AKE]”, the “(Best Result − Average)” value in test [2] was -12.6 kJ/mol.

peptide V0083091A (KKYK; SEQ ID NO: 1): in test [3], the Binding Energy, All 100 Average is -35.1 kJ/mol; the Binding Energy, Best Result is -47.7 kJ/mol; the Binding Energy, Top 10 Average is -42.6 kJ/mol.
